This note sets out measurements from patent US4902791A, “Nitrosourea derivatives, process for their preparation and medicaments containing them” (Sanofi S.A., priority 1983, dated 1990).

Some results are limits rather than exact numbers.

A short description of data set [1]: toxicological study, lethal doses (Table IA). As to conditions: mouse, in vivo. The source says:
The results relating to toxicology are brought together in Table IA below:

A further data set has as its system L1210 U.S.A. strain. The data set can be described thus: antitumor activity on leukemia L1210 U.S.A., compounds of formula IA, I.P. In kind it is in vivo, mouse. How it is done: On the day of the graft (by convention day 0=DO) an inoculum of 1×10^5 tumor cells in a volume of 0.2 ml is administered to each mouse by the intraperitoneal route (I.P.).
This inoculum is prepared by diluting ascites fluid taken from the peritoneum of a donor female mouse in NCTC 109 medium (Eurobio Laboratories Paris, France), counting of the cells in a MALASSEZ cell under a microscope and adjustment of the concentration to 5×10^5cells per ml.
After the tumor graft has been made, the mice are distributed at random in cages of 5 animals. Subsequently, these cages containing 5 mice are themselves distributed at random into a control group (control) and groups treated with the products of the invention.
(§1) The doses of the products of the invention used in the different experiments are expressed in milligrams per kilogram of body weight.
(§2) The products to be injected were dissolved in isotonic sodium chloride solution.
Two protocols for treatment were used in the different experiments:
(§3) or 3 I.P. injections on D1, D5, D9.
(§4) In each experiment the animals of the control group received 1 or more injections, depending on the experimental protocol used, by the same route (I.P. or I.V.) of the same volume (0.2 ml/20 g) of the vehicle not containing the active principle (isotonic sodium chloride solution).
(§5) the number and percentage of the total of the mice surviving to D60,
(§6) the T/C×100 for treated groups.
(§7) T representing the mean survival time of the mice in the treated group
(§8) C representing the mean survival time of the mice in the control group (control).

The subject of the next data set is L1210 U.S.A. The data set can be described thus: antitumor activity on leukemia L1210 U.S.A., products of examples 33-39, I.P. Format: in vivo, mouse. How it is done: The experiments were always carried out on female mice which were specific pathogen-free (S. P. F.),
either of the line DBA/2JIco
or of the line B6 D2 F1/JIco (first generation hybrids between the lines C57BL/6 and DBA/2).
On the day of the graft (by convention day 0=D0) an inoculum of 1×10^5 tumor cells in a volume of 0.2 ml is administered to each mouse by the intraperitoneal route (I.P.).
This inoculum is prepared by diluting ascites fluid taken from the peritoneum of a donor female mouse in NCTC 109 medium (Eurobio Laboratories, Paris, France), counting of the cells in a MALASSEZ cell under a microscope and adjustment of the concentration to 5×10^5cells […] by means of the same medium.
The tumor line is an American strain of the line L1210.
After the tumor graft, the mice are distributed at random in cages of 5 animals. Subsequently, these cages containing 5 mice are themselves distributed at random into a control group (control) and groups treated with the I.C. products.
as §1, §2
2 protocols for treatment were used in the different experiments:
either a single injection on D1, by the intraperitoneal (I.P.) or intravenous (I.V.) route,
as §3
In each experiment the animals of the control group received 1 or more injections, depending on the experimental protocol used, by the same route (I.P. or I.V.) of the same volume (0.2 ml/20 g) of the vehicle without the active principle (isotonic sodium chloride solution).
as §5
the T/C×100 for the treated groups.
T representing the mean survival time of the mice in the treated group,
C representing the mean survival time of the mice in the control group (controls).

A short description of data set [2]: toxicological results, single I.P. dose, DL0 and DL50. Format: in vivo, mouse. As to conditions: mice. The source says: DL0, DL50, single I.P. dose administered to the aforementioned strains of mice.
A further data set concerns melanoma B16. The data set can be described thus: antitumor activity on melanoma B16, compounds of formula IA, I.P. In kind it is in vivo, mouse. Particulars: B6 D2 F1, I.P. D1, D5, D9, 3×10 mg/kg. How it is done:
The experiments were always carried out on SPF female mice B6 D2 F1/JIco (first generation hybrids between the lines C5BL/6 and DBA/2).
On the day of the graft (Day 0) an inoculum of 2×10^6 tumor cells in a volume of 0.5 ml is administered to each mouse by the intraperitoneal route (I.P.). This inoculum is prepared from a sub-cutaneous tumor excised from a donor female mouse. After excision the tumor is fragmented by means of a pair of scissors in the NCTC 109 medium. After filtration through sterile gauze in order to remove large cellular fragments, the homogeneous cell suspension obtained is counted by means of a MALASSEZ cell and diluted to the desired concentration (4×10^6 tumor cells per ml) by dilution with the NCTC 109 medium.
This was performed in the manner described previously for the leukemia L1210.
as §1, §2, §3, §4, §5, §6, §7, §8

Setting [3] is: B6 D2 F1, I.P. D1, D5, D9, 3×1.25 mg/kg.
Setting [4] is: B6 D2 F1, I.P. D1, D5, D9, 3×5 mg/kg.
Setting [5] is: DBA2, I.P. D1, D5, D9, 3×2.5 mg/kg.
[6] abbreviates: DBA2, I.P. D1, D5, D9, 3×10 mg/kg.

Consider `CO[C@@H]1O[C@H](COC(=O)c2ccccc2)C[C@H](NC(=O)N(CCCl)N=O)[C@H]1O` [CI. 1674, methyl 3-[3-(2-chloroethyl)-3 nitrosoureido] 6-benzoyl 3,4-dideoxy-β-D-xylo-hexopyranoside], for which, in data set [1], the LD0 is at least 40 mg/kg. In addition, the “Number of survivors at D60” value in the data set on L1210 U.S.A. strain (setting [3]) and in the data set on L1210 U.S.A. strain (setting [4]) was 0/10 in each case. For the same compound, the T/C in the data set with L1210 U.S.A. strain (setting [3]) is 111; in the data set with L1210 U.S.A. strain (setting [4]) it was 130.

Take `CO[C@@H]1O[C@@H](C)C[C@@H](NC(=O)N(CCCl)N=O)[C@@H]1O` [IC. 85-1626, methyl 3-[3-(2-chloroethyl) 3-nitrosoureido] 3,4,6-trideoxyα-L-xylo-hexopyranoside]: in the data set with L1210 U.S.A. (DBA2, I.P. D1, 1×20 mg/kg), the “Number of survivors on D60” value is 3/10. In the data set with L1210 U.S.A. (setting [5]), the “Number of survivors on D60” value is given as 0/10 and the T/C turned out to be 150. Moreover, in the data set with L1210 U.S.A. (setting [6]), the “Number of survivors at D60” value was 3/10 and the T/C was 275. The DL0 in data set [2] is at least 20 mg/kg. Also, in data set [2] (mouse, in vivo, ip), the LD50 is around 40 mg/kg.

On to `CO[C@H]1C[C@@H](NC(=O)N(CCCl)N=O)[C@H](O)[C@@H](C)O1` [IC. 85-1625, methyl 3-[3-(2-chloroethyl) 3-nitrosoureido] 2,3,6-trideoxyβ-L-arabino-hexopyranoside], for which, in the data set with L1210 U.S.A. (setting [6]), the “Number of survivors at D60” value is 0/10 and the T/C amounted to 190. In data set [2], this compound showed a DL0 of at least 40 mg/kg.

For `CO[C@H]1O[C@H](CO)C[C@H](NC(=O)N(CCCl)N=O)[C@H]1O` [CI. 1677, methyl 3-[3-(2-chloroethyl) 3-nitroso-ureido] 3,4-dideoxy-α-D-xylo-hexopyranoside], the entries for the “Number of survivors at D60” value with melanoma B16, in the data set on L1210 U.S.A. strain (setting [3]) and in the data set on L1210 U.S.A. strain (setting [4]) were 7/10, 0/10 and 6/10, respectively. In addition, the T/C is 257 in the data set with melanoma B16, 157 in the data set with L1210 U.S.A. strain (setting [3]) and above 600 in the data set on L1210 U.S.A. strain (setting [4]). The same compound gave an LD90 in data set [1] of at most 20 mg/kg.

With `CO[C@H]1O[C@H](CO)[C@H](Cl)[C@H](NC(=O)N(CCCl)N=O)[C@H]1O` [CI. 1676, methyl 4-chloro 3-[3-(2-chloro-ethyl) 3-nitrosoureido] 3,4-dideoxy-α-D-galacto-hexopyranoside], the figures for the “Number of survivors at D60” value in the data set on melanoma B16, in the data set with L1210 U.S.A. strain (setting [3]) and in the data set on L1210 U.S.A. strain (setting [4]) were 3/10, 0/10 and 0/10, respectively. The T/C in the data set on melanoma B16 is 202; in the data set on L1210 U.S.A. strain (setting [3]), 136; in the data set with L1210 U.S.A. strain (setting [4]), 188. The compound further yielded an LD0 in data set [1] of at least 20 mg/kg.
